From PubChem BioAssay (NCI)
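Method: 48-hour compound exposure of cells in 96-well plates, five concentrations, linear interpolation of endpoints. Definition used: TGI = concentration required for complete inhibition of growth.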

Legend:
Experiment in all cases: NCI-60 cell line screen, 48 h
[1] = test system: UACC-257 melanoma
[2] = test system: OVCAR-8 ovarian
[3] = test system: ACHN renal
[4] = test system: SK-OV-3 ovarian
[5] = test system: BT-549 breast
[6] = test system: OVCAR-3 ovarian
[7] = test system: SK-MEL-5 melanoma
[8] = test system: M14 melanoma
[9] = test system: TK-10 renal
[10] = test system: K-562 leukemia
[11] = test system: EKVX NSCLC
[12] = test system: HT29 colon
[13] = test system: CCRF-CEM leukemia
[14] = test system: HS 578T breast
[15] = test system: KM12 colon
[16] = test system: SK-MEL-2 melanoma
[17] = test system: MDA-N
[18] = test system: DU-145 prostate
[19] = test system: HOP-62 NSCLC
[20] = test system: CAKI-1 renal
[21] = test system: COLO 205 colon
[22] = test system: PC-3 prostate
[23] = test system: 786-0 renal
[24] = test system: HCC-2998 colon
[25] = test system: SK-MEL-28 melanoma
[26] = test system: SF-268 CNS
[27] = test system: HCT-116 colon
[28] = test system: MOLT-4 leukemia
[29] = test system: SN12C renal
[30] = test system: A498 renal
[31] = test system: HCT-15 colon
[32] = test system: NCI/ADR-RES ovarian
[33] = test system: T-47D breast
[34] = test system: OVCAR-5 ovarian
[35] = test system: NCI-H460 lung
[36] = test system: OVCAR-4 ovarian
[37] = test system: IGROV1 ovarian
[38] = test system: MDA-MB-231 breast
[39] = test system: A549 NSCLC
[40] = test system: SNB-19 CNS
[41] = test system: UO-31 renal
[42] = test system: NCI-H23 lung
[43] = test system: RXF 393 renal
[44] = test system: MCF7 breast
[45] = test system: SF-295 CNS
[46] = test system: SW-620 colon
[47] = test system: SNB-75 CNS
[48] = test system: RPMI-8226 leukemia
[49] = test system: NCI-H226 lung
[50] = test system: MDA-MB-435
[51] = test system: NCI-H522 lung
[52] = test system: UACC-62 melanoma
[53] = test system: U251 CNS
[54] = test system: MALME-3M melanoma
[55] = test system: HOP-92 NSCLC
[56] = test system: HL-60(TB) leukemia
[57] = test system: SF-539 CNS
[58] = test system: SR leukemia
[59] = test system: LOX IMVI melanoma

COc1cccc2c1CCc1sc(CN3CCN(C)CC3)nc1-2
TGI [1]: > 100 µM | TGI [2]: > 100 µM | TGI [3]: > 100 µM | TGI [4]: > 100 µM | TGI [5]: > 100 µM | TGI [6]: > 100 µM | TGI [7]: 80.1 µM | TGI [8]: > 100 µM | TGI [9]: > 100 µM | TGI [10]: > 100 µM | TGI [11]: > 100 µM | TGI [12]: 54.1 µM | TGI [13]: 53.5 µM | TGI [14]: > 100 µM | TGI [15]: > 100 µM | TGI [16]: > 100 µM | TGI [17]: > 100 µM | TGI [18]: > 100 µM | TGI [19]: > 100 µM | TGI [20]: > 100 µM | TGI [21]: > 100 µM | TGI [22]: > 100 µM | TGI [23]: > 100 µM | TGI [24]: > 100 µM | TGI [25]: > 100 µM | TGI [26]: > 100 µM | TGI [27]: > 100 µM | TGI [28]: 63.9 µM | TGI [29]: > 100 µM | TGI [30]: > 100 µM | TGI [31]: > 100 µM | TGI [32]: > 100 µM | TGI [33]: > 100 µM | TGI [34]: > 100 µM | TGI [35]: > 100 µM | TGI [36]: > 100 µM | TGI [37]: > 100 µM | TGI [38]: > 100 µM | TGI [39]: > 100 µM | TGI [40]: > 100 µM | TGI [41]: > 100 µM | TGI [42]: > 100 µM | TGI [43]: > 100 µM | TGI [44]: > 100 µM | TGI [45]: > 100 µM | TGI [46]: > 100 µM | TGI [47]: > 100 µM | TGI [48]: > 100 µM | TGI [49]: > 100 µM | TGI [50]: > 100 µM | TGI [51]: > 100 µM | TGI [52]: 65.7 µM | TGI [53]: > 100 µM | TGI [54]: > 100 µM

Cc1cccc(N=Nc2ccc(O)c(CN(C)C)c2)c1
TGI [55]: > 100 µM | TGI [1]: 36 µM | TGI [2]: 85.1 µM | TGI [3]: 34.9 µM | TGI [4]: > 100 µM | TGI [5]: > 100 µM | TGI [6]: 52.7 µM | TGI [7]: 27.5 µM | TGI [8]: 62.2 µM | TGI [9]: 72.4 µM | TGI [10]: 16.1 µM | TGI [11]: 58.1 µM | TGI [12]: 53.8 µM | TGI [13]: 4.69 µM | TGI [14]: 44.9 µM | TGI [56]: 54.2 µM | TGI [15]: 34.4 µM | TGI [16]: 47.6 µM | TGI [57]: 41.6 µM | TGI [17]: 75.2 µM | TGI [19]: 28.9 µM | TGI [20]: > 100 µM | TGI [21]: 28.6 µM | TGI [22]: > 100 µM | TGI [23]: 92.5 µM | TGI [24]: 30.3 µM | TGI [25]: 36.9 µM | TGI [58]: > 100 µM | TGI [26]: > 100 µM | TGI [59]: 26.9 µM | TGI [27]: > 100 µM | TGI [28]: 91.6 µM | TGI [29]: > 100 µM | TGI [30]: 38.8 µM | TGI [31]: 80.6 µM | TGI [32]: 72.6 µM | TGI [33]: 57.5 µM | TGI [34]: 98.4 µM | TGI [35]: 34.8 µM | TGI [36]: > 100 µM | TGI [37]: 65.9 µM | TGI [38]: > 100 µM | TGI [39]: > 100 µM | TGI [40]: > 100 µM | TGI [41]: 51.5 µM | TGI [42]: > 100 µM | TGI [43]: 73.7 µM | TGI [44]: > 100 µM | TGI [45]: 86.5 µM | TGI [46]: 66.8 µM | TGI [47]: 94.5 µM | TGI [48]: > 100 µM | TGI [49]: > 100 µM | TGI [50]: 35.8 µM | TGI [51]: 24.1 µM | TGI [52]: 30.4 µM | TGI [53]: > 100 µM | TGI [54]: 21.8 µM
